pIC50: −log10 of the molar value. Where two headings read alike, the source gives them in different places.
Key:
[1] = target: Mtb Lpd (Mycobacterium tuberculosis (strain ATCC 25618 / H37Rv), UniProt P9WHH9); assay type: biochemical; conditions: for pIC50: read-out: LPD IC50; for IC50: 30 min preincubation, read-out: LPD IC50 (μM) w/ 30 min preincubation
[2] = microsomes

Row | Structure (SMILES) | pIC50 [1] | Human Liver Microsome Stability [2] [µL/min/mg] | IC50 [1] [µM]
1 | O=C(Nc1ccc2c(c1)OCCN2C1CCOCC1)[C@@H]1CCN1S(=O)(=O)c1cc(Cl)cc2c(F)n[nH]c12 [Example 162] | 7.23 | 91 | –
2 | Cc1cc(S(=O)(=O)N(C)CC(=O)Nc2ccc3c(c2)N(C2CCOCC2)CCO3)c2[nH]ncc2c1 [Example 163] | 7.51 | 94 | –
3 | CN(C)CCOc1ccc(NC(=O)CN(C)S(=O)(=O)c2cccc3cn[nH]c23)cc1Cl [Example 164] | 7.07 | -16 | –
4 | CN(CC(=O)Nc1ccc2c(c1)OCCN2C1CCOCC1)S(=O)(=O)c1cc(Cl)cc2c(F)n[nH]c12 [Example 165] | 7.43 | 162 | –
5 | CN(CC(=O)Nc1ccc2c(c1)OCCN2C1CCOCC1)S(=O)(=O)c1cc(Cl)cc2cn[nH]c12 [Example 166] | 7.47 | 122 | –
6 | Cc1cc(S(=O)(=O)N2CC[C@H]2C(=O)Nc2ccc(OCCN(C)C)c(Cl)c2)c2[nH]ncc2c1 [Example 168] | 6.84 | 1 | –
7 | Cc1cc(S(=O)(=O)N(C)CC(=O)Nc2ccc3c(c2)N(C2COC2)CCO3)c2[nH]ncc2c1 [Example 169] | 7.42 | 39 | –
8 | Cc1cc(S(=O)(=O)N2CCC[C@@H](C(=O)Nc3ccc4c(c3)OCCN4C3COC3)C2)c2[nH]ncc2c1 [Example 170, N-1-((5-methyl-1H-indazol-7-yl)sulfonyl)-N-(4-(oxetan-3-yl)-3,4-dihydro-2H-benzo[b][1,4]oxazin-7-yl)piperidine-3-carboxamide] | 7.29 | 34 | –
9 | CN(CC(=O)Nc1ccc2c(c1)OCCN2C1CCOCC1)S(=O)(=O)c1cc(C(F)F)cc2cn[nH]c12 [Example 171, 2-((5-(difluoromethyl)-N-methyl-1H-indazole)-7-sulfonamido)-N-(4-(tetrahydro-2H-pyran-4-yl)-3,4-dihydro-2H-benzo[b][1,4]oxazin-7-yl)acetamide] | 7.11 | 102 | –
10 | CN(CC(=O)Nc1ccc2c(c1)OCCN2C1COC1)S(=O)(=O)c1cc(C2(O)CC2)cc2cn[nH]c12 [Example 173] | 6.39 | 60 | –
11 | CN(CC(=O)Nc1ccc2c(c1)OCCN2C1CCOCC1)S(=O)(=O)c1cc(C2(O)CC2)cc2cn[nH]c12 [Example 174] | 6.26 | 131 | –
12 | CN(CC(=O)Nc1ccc2c(c1)OCCN2C1CCOCC1)S(=O)(=O)c1cc(C(F)F)cc2c(F)[nH]nc12 [Example 175, 2-((5-(difluoromethyl)-3-fluoro-N-methyl-1H-indazole)-7-sulfonamido)-N-(4-(tetrahydro-2H-pyran-4-yl)-3,4-dihydro-2H-benzo[b][1,4]oxazin-7-yl)acetamide] | 7.05 | 166 | –
13 | Cc1cc(S(=O)(=O)N(C)CC(=O)Nc2ccn(C)c(=O)c2)c2n[nH]c(Cl)c2c1 [Example 176, 2-((3-chloro-N,5-dimethyl-1H-indazole)-7-sulfonamido)-N-(1-methyl-2-oxo-1,2-dihydropyridin-4-yl)acetamide] | 6.60 | 34 | –
14 | CC(C)(CO)N1CCOc2cc(NC(=O)[C@@H]3CCN3S(=O)(=O)c3cc(C(F)F)cc4cn[nH]c34)ccc21 [Example 177] | 6.71 | 177 | –
15 | Cc1cc(S(=O)(=O)N2CC[C@H]2C(=O)Nc2ccn(C)c(=O)c2)c2[nH]nc(Cl)c2c1 [Example 178] | 6.68 | -13 | –
16 | Cc1cc(S(=O)(=O)N(C)CC(=O)Nc2ccc3c(c2)OCCN3C2CCOCC2)c2[nH]c(C#N)cc2c1 [Example 181, 2-((2-cyano-N,5-dimethyl-1H-indole)-7-sulfonamido)-N-(4-(tetrahydro-2H-pyran-4-yl)-3,4-dihydro-2H-benzo[b][1,4]oxazin-7-yl)acetamide] | 7.02 | 195 | –
17 | CN(CC(=O)Nc1ccn(C)c(=O)c1)S(=O)(=O)c1cc(C(F)F)cc2c(F)n[nH]c12 [Example 183, 2-((5-(difluoromethyl)-3-fluoro-N-methyl-1H-indazole)-7-sulfonamido)-N-(1-methyl-2-oxo-1,2-dihydropyridin-4-yl)acetamide] | 6.64 | -15 | –
18 | O=C(Nc1ccc2c(c1)OCCN2C1COC1)[C@@H]1CCN1S(=O)(=O)c1cc(C(F)F)cc2c(F)n[nH]c12 [Example 184, (S)-1-((5-(difluoromethyl)-3-fluoro-1H-indazol-7-yl)sulfonyl)-N-(4-(oxetan-3-yl)-3,4-dihydro-2H-benzo[b][1,4]oxazin-7-yl)azetidine-2-carboxamide] | 6.83 | 36 | –
19 | O=C(Nc1ccc2c(c1)OCCN2C1CCOCC1)[C@@H]1CCN1S(=O)(=O)c1cc(C(F)F)cc2c(F)n[nH]c12 [Example 185] | 6.74 | 114 | –
20 | Cn1ccc(NC(=O)[C@@H]2CCN2S(=O)(=O)c2cc(C=O)cc3c(F)n[nH]c23)cc1=O [Example 186, (S)-1-((3-fluoro-5-formyl-1H-indazol-7-yl)sulfonyl)-N-(1-methyl-2-oxo-1,2-dihydropyridin-4-yl)azetidine-2-carboxamide] | 5.98 | 153 | –

Row | Structure (SMILES) | pIC50 [1] | Human Liver Microsome Stability [2] [µL/min/mg] | IC50 [1] [µM]
21 | Cc1cc(S(=O)(=O)N2CC[C@H]2C(=O)Nc2ccn(C)c(=O)c2)c2[nH]c(C#N)cc2c1 [Example 187, (S)-1-((2-cyano-5-methyl-1H-indol-7-yl)sulfonyl)-N-(1-methyl-2-oxo-1,2-dihydropyridin-4-yl)azetidine-2-carboxamide] | 6.87 | -2 | –
22 | Cc1cc(S(=O)(=O)N2CC[C@@H]2C(=O)Nc2ccn(C)c(=O)c2)c2[nH]c(C#N)cc2c1 [Example 188, (R)-1-((2-cyano-5-methyl-1H-indol-7-yl)sulfonyl)-N-(1-methyl-2-oxo-1,2-dihydropyridin-4-yl)azetidine-2-carboxamide] | 5.05 | 5 | –
23 | Cc1cc(S(=O)(=O)N(C)CC(=O)Nc2ccc3c(c2)OCCN3C2COC2)c2[nH]c(C#N)cc2c1 [Example 189] | 7.12 | 142 | 0.018
24 | O=C(Nc1ccc(N2CCOCC2)c(Cl)c1)[C@@H]1CCN1S(=O)(=O)c1cc(C(F)F)cc2cn[nH]c12 [Example 190, (S)—N-(3-chloro-4-morpholinophenyl)-1-((5-(difluoromethyl)-1H-indazol-7-yl)sulfonyl)azetidine-2-carboxamide] | 6.95 | 86 | –
25 | O=C(Nc1ccc(N2CCOCC2)c(Cl)c1)[C@H]1CCN1S(=O)(=O)c1cc(C(F)F)cc2cn[nH]c12 [Example 191, (2R)—N-(3-chloro-4-morpholino-phenyl)-1-[[5-(difluoromethyl)-1H-indazol-7-yl]sulfonyl]azetidine-2-carboxamide] | < 5.00 | 98 | –
26 | Cc1cc(S(=O)(=O)N(C)CC(=O)Nc2ccc(C3CCN(C4COC4)CC3)c(Cl)c2)c2[nH]ncc2c1 [Example 193, N-(3-chloro-4-(1-(oxetan-3-yl)piperidin-4-yl)phenyl)-2-((N,5-dimethyl-1H-indazole)-7-sulfonamido)acetamide] | 7.28 | 73 | –
27 | Cc1cc(S(=O)(=O)N(C)CC(=O)Nc2ccc(C3CCN(C)CC3)c(Cl)c2)c2[nH]ncc2c1 [Example 194] | 7.14 | 35 | –
28 | Cc1cc(S(=O)(=O)N2CC[C@H]2C(=O)Nc2ccc(N3CCOCC3)c(Cl)c2)c2[nH]c(C#N)cc2c1 [Example 195] | 6.95 | 64 | –
29 | Cc1cc(S(=O)(=O)N(C)CC(=O)Nc2ccc(N3CCOCC3)c(Cl)c2)c2[nH]c(C#N)cc2c1 [Example 198] | 7.06 | 137 | –
30 | Cc1cc(S(=O)(=O)N2CC[C@H]2C(=O)Nc2ccc(OCCN(C)C)c(Cl)c2)c2[nH]ncc2c1 [Example 199] | 6.73 | -7 | 0.045
31 | CC#CCNC(=O)[C@@H]1CCN1S(=O)(=O)c1cc(C)cc2cn[nH]c12 [Example 200] | 6.42 | 13 | –
32 | C#CCNC(=O)[C@@H]1CCN1S(=O)(=O)c1cc(C)cc2cn[nH]c12 [Example 201] | 6.65 | 14 | –
33 | Cc1cc(S(=O)(=O)N2CC[C@H]2C(=O)NCC#N)c2[nH]ncc2c1 [Example 202] | 6.49 | 4 | –
34 | Cc1cc(S(=O)(=O)N(C)CC(=O)NCC#Cc2ccccc2)c2[nH]ncc2c1 [Example 203] | 7.37 | 129 | –
35 | CC#CCNC(=O)CN(C)S(=O)(=O)c1cc(C)cc2cn[nH]c12 [Example 204] | 7.35 | 19 | 0.024
36 | Cc1cc(S(=O)(=O)N2CC[C@H]2C(=O)NCC#Cc2ccccc2)c2[nH]ncc2c1 [Example 205] | 6.81 | 205 | –
37 | Cc1cc(S(=O)(=O)N2CC[C@H]2C(=O)Nc2ccc3c(c2)OCCN3C2COC2)c2[nH]c(C#N)cc2c1 [Example 206, (S)-1-((2-cyano-5-methyl-1H-indol-7-yl)sulfonyl)-N-(4-(oxetan-3-yl)-3,4-dihydro-2H-benzo[b][1,4]oxazin-7-yl)azetidine-2-carboxamide] | 7.09 | 111 | 0.022
38 | Cc1cc(S(=O)(=O)N2CCC2C(=O)Nc2ccc(OCCN(C)C)c(C)c2)c2[nH]c(C#N)cc2c1 (centres unmarked) [Example 207] | 6.65 | -7 | 0.06
39 | Cc1cc(S(=O)(=O)N(C)CC(=O)Nc2ccc3c(c2)N(C2COC2)CCO3)c2[nH]c(C#N)cc2c1 [Example 208] | – | 341 | 0.015
